Here are results for seven compounds from EP0334119A1, “Compounds for inhibiting the biosynthesis of lipoxygenase-derived metabolites of arachidonic acid” (BOEHRINGER INGELHEIM PHARMACEUTICALS INC., priority 1988, dated 1989).

Experiment [1] addresses T1, 5-lipoxygenase (Homo sapiens, UniProt P09917).
T1 construct: Human PMN's (5 x 10⁶ cells/0.5 mL) in pH 7.2 phosphate buffer; endogenous in cells; host or cells: human polymorphonuclear leukocytes (PMN)
T1 sequence (P09917 1-674): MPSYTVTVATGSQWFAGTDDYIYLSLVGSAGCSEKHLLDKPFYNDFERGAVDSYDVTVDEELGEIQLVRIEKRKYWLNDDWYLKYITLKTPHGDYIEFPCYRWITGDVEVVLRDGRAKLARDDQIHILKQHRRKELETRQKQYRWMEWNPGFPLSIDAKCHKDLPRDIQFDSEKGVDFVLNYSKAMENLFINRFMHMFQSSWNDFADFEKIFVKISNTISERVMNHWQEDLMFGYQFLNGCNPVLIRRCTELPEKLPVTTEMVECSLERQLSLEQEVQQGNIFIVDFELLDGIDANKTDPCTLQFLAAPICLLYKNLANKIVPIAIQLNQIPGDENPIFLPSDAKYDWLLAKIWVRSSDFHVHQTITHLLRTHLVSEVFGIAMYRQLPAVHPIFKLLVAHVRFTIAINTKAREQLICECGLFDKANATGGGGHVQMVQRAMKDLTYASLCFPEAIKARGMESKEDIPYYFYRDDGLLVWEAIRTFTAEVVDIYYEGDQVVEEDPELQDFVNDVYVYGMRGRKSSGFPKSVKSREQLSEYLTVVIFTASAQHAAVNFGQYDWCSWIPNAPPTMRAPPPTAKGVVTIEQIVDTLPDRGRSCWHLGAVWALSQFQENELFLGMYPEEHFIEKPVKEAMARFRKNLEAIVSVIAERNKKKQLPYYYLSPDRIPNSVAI
The experiment can be described thus: Inhibition of 5-lipoxygenase (5-HETE biosynthesis) in human polymorphonuclear leukocytes. The experiment is classed as cell-based. The settings on record: human PMN's, 5-HETE band vs control; test concentration 1 microM; read-out: Inhibition of 5-LO % at 1 M. On the procedure: Inhibition of 5-Lipoxygenase in Human Polymorphonuclear Leukocytes (PMN's)
The inhibition of 5-lipoxygenase is measured by determining whether and to what extent test compounds inhibit the amount of 5-HETE biosynthesized by human PMN's. 5-HETE biosynthesis serves as a marker for arachidonic acid metabolism by 5-lipoxygenase.
Human PMN's (5 x 10⁶ cells/0.5 mL) in pH 7.2 phosphate buffer containing Ca²⁺ (0.6 mM) and Mg²⁺ (1.0 mM) were incubated with test compound for 15 minutes at 37°C with shaking. Calcium ionophore A23187 (0.25 mM, 0.01 mL) and [¹⁴C] arachidonic acid (0.10 microCi in 0.025 mL 0.01N NaOH) were added, and the mixture incubated another 2.5 minutes. The reaction was terminated by the addition of 0.025 mL of 1.0 N HCl. The mixture was then extracted with ethyl acetate-methylene chloride (2:3) supplemented with 12 microgram/mL cold arachidonic acid to reduce degradation of the metabolites. After concentrating the organic phase, the number of microlitres containing 5 x 10⁴ cpm was determined and that volume applied to a silica gel plate. The plate was developed in methylene-chloride-methanol-acetic acid-water (90:8:1:0.8), air dried, and counted on a Berthold linear TLC analyzer. The integrated area of the 5-HETE band was determined and compared with the control (no drug).
In cases where the IC₅₀ was determined, the result is shown in microM.

Experiment [2] relates to 5-lipoxygenase. Put plainly: Inhibition of antigen-induced, SRS-A mediated bronchioconstriction in conscious guinea pigs. The experiment is classed as in vivo. The conditions noted are these: i.p. in 5% Tween 80 suspension, 30mg/kg, 60 minutes before antigen challenge; % inhibition of the decrease in Cdyn. The text has this:
Inhibition of Antigen-Induced, SRS-A Mediated Bronchioconstriction in Conscious Guinea Pigs
This model is used to measure the ability of a drug to inhibit 5-lipoxygenase in vivo. SRS-A (slow reacting substance of anaphylaxis - also referred to as leukotrienes C₄, D₄ and E₄) is released by cells in the sensitized guinea pig upon stimulation by antigen, resulting in bronchioconstriction and change in pulmonary function. The leukotrienes are biosynthesized from arachidonic acid by the enzyme 5-lipoxygenase. Therefore, an inhibitor of 5-lipoxygenase could reduce the production of SRS-A and attenuate the bronchioconstriction.
Male outbred Hartley strain albino guinea pigs (250-300 grams) were sensitized by i.p. injection of ovalbumin (3mg/kg) followed by an i.p. injection of Bordetella pertussis (about 5x10⁹ killed organisms) and studied 14 days later.
Sensitized guinea pigs (fasted for 18 hours) were anesthesized and a catheter-tip pressure transducer was inserted into the pleural space of each animal. The animals are pretreated (i.p.) with pyrilamine (10mg/kg) and indomethacin (10mg/kg) to antagonize the effects of histamine and inhibit cyclooxygenase respectively. Cyclooxygenase products and histamine are released endogenously along with SRS-A, upon antigen challenge. Test compound is also administered i.p., 60 minutes before antigen challenge.
The guinea pigs were placed in a "head out" plethysmograph and allowed to recover from anesthesia. Airflow into the respiratory system, pleural pressure and airflow signals were measured, and tidal volume, dynamic pulmonary compliance (Cdyn) and breathing frequency were calculated according to a published technique (E.G. Damen et al., Toxicol. Appl. Pharmacol., 1982, 64, 465). After baseline values for pulmonary function were obtained, the animals were challenged by aerosolized ovalbumin. The overall changes in pulmonary function parameters were determined by calculating the mean changes from baseline during the period 5 to 15 minutes following antigen challenge.
Drug efficacy was determined by comparing the mean of the percent decrease in Cdyn from baseline in drug treated animals (N=4-6) to control animals (N=10-12).

The subject of experiment [3] is A23187-Induced LTB₄ Generation. The experiment can be described thus: Ex vivo inhibition of A23187-induced LTB4 generation in squirrel monkey blood. Also on record: species or system Squirrel Monkeys. The conditions noted are these: Primates, 1 h, 60 min after dosing, vehicle per footnotes 2-4. On the procedure:
Ex Vivo Inhibition of A23187-Induced LTB₄ Generation in Squirrel Monkeys.
Incubation of squirrel monkey whole blood with calcium ionophore A23187 stimulates the production of LTB₄. This LTB₄ production can be inhibited by a lipoxygenase inhibitor in vitro by incubating the blood with the inhibitor prior to A23187 challenge. By dosing squirrel monkeys with a lipoxygenase inhibitor prior to withdrawal of a blood sample, one can determine the ability of the lipoxygenase inhibitor to be absorbed into the bloodstream by measuring the inhibition of A23187 induced LTB₄ production ex vivo.
Squirrel monkeys (400-650g) were fasted for 18 hours, anesthetized and dosed either orally or intraperitoneally with test compound. After the desired time period, blood was withdrawn from the femoral vein. The blood (0.5 mL) was heparinized, preincubated at 37°C for 5 minutes and stimulated with A23187 in DMSO to give a final concentration of 30 microM. The reaction was terminated with EGTA (final concentration 10 microM), and the blood centrifuged. Levels of LTB₄ in the plasma were then determined by radioimmunoassay.
The results shown in Table 4 illustrate the ability of a prodrug of type 2a or 2b to be absorbed after ip or po dosing compared to the parent compound 1a.

Experiment [4] has as its system 5-lipoxygenase. The experiment can be described thus: Inhibition of antigen-induced, late phase inflammatory cell infiltration in guinea pigs. The experiment is classed as in vivo. The settings on record: 60 minutes before antigen challenge, lung lavage four hours after challenge. The text has this: Inhibition of Antigen-Induced, Late Phase Inflammatory Cell Infiltration in Guinea Pigs
This model is used to measure the ability of a drug to inhibit 5-lipoxygenase in vivo. In addition to SRS-A, a chemotactic substance LTB₄ is also released by cells in the sensitized guinea pig lung upon stimulation by antigen. As a result there is a measurable influx of cells into the lung. Therefore, an inhibitor of 5-lipoxygenase could reduce the formation of LTB₄ and thereby reduce the cell influx into the lung.
Male outbred Hartley strain albino guinea pigs (250-300 grams) were sensitized to ovalbumin as in the procedure for inhibition of antigen-induced, SRS-A mediated bronchioconstriction in conscious guinea pigs.
Sensitized guinea pigs were fasted and pretreated with pyrilamine and indomethacin as in bronchioconstriction testing procedure. Test compounds, suspended in 1% acacia, were administered 60 minutes before antigen challenge. […] Whole lung lavage was performed with three 5 mL aliquots of normal saline buffered with sodium bicarbonate.
Total cell counts were performed on a Coulter Counter, and differential cell counts were performed. Compounds were evaluated for their ability to alter the antigen-induced total cell influx and, more specifically, neutrophil (PMN) influx.

Structures are written as SMILES. Where two headings read alike, the source gives them in different places.

Take `Cc1cc(C=Cc2cccs2)cc(C)c1O` [Compound 1a, 2,6-Dimethyl-4-[2-(2-thienyl)ethenyl]phenol]: the inhibition at 1 µM on 5-lipoxygenase [1] is 91%. Also, in the experiment on 5-lipoxygenase [2], the “% Inhibition of Bronchioconstriction” value amounted to 75%. For the same compound, the inhibition at 30 mg/kg in experiment [3] (30 mg/kg ip, read-out: Percent Inh. Monkey 2) stood at 12%; in experiment [3] (30 mg/kg ip, read-out: Percent Inh. Monkey 3), 4%; in experiment [3] (30 mg/kg ip, read-out: Percent Inh. Monkey #1), 47%; in experiment [3] (30 mg/kg po, read-out: Percent Inh. Monkey 2), 0%; in experiment [3] (30 mg/kg po, read-out: Percent Inh. Monkey 3), 0%; in experiment [3] (30 mg/kg po, read-out: Percent Inh. Monkey #1) it was 18%. Besides, the results for the “% Inh. PMN” value in the experiment with 5-lipoxygenase [4] (30 mg/kg ip) and with 5-lipoxygenase [4] (30 mg/kg po) were 95% and 14%, respectively. Also, the “% Inh. Total Cells” value was 78% with 5-lipoxygenase [4] (30 mg/kg ip) and 51% in the experiment with 5-lipoxygenase [4] (30 mg/kg po).

Regarding `Cc1cc(C=Cc2ccsc2)cc(C)c1O` [Compound 1o], the inhibition at 1 µM on 5-lipoxygenase [1] is 84%. In addition, in the experiment with 5-lipoxygenase [2], the “% Inhibition of Bronchioconstriction” value was 26%.

Regarding `CCCc1cc(C=Cc2cccs2)cc(OC)c1O` [Compound 1f], on 5-lipoxygenase [1], the inhibition at 1 µM came out at 76%. Moreover, the “% Inhibition of Bronchioconstriction” value in the experiment on 5-lipoxygenase [2] worked out at 57%. Besides, in the experiment with 5-lipoxygenase [4] (30 mg/kg ip), the “% Inh. PMN” value is given as 54% and the “% Inh. Total Cells” value is listed as 77%.

With `CCc1cc(C=Cc2cccs2)cc(OC)c1O` [Compound 1e], the inhibition at 1 µM at 5-lipoxygenase [1] stood at 85%. In the experiment on 5-lipoxygenase [2], the “% Inhibition of Bronchioconstriction” value was 51%.

With `CC(C)c1cc(C=Cc2cccnc2)cc(C(C)C)c1O` [Compound 1ab], the inhibition at 1 µM on 5-lipoxygenase [1] turned out to be 73%. Besides, in the experiment with 5-lipoxygenase [2], the “% Inhibition of Bronchioconstriction” value was found to be 34%.

In the case of `Cc1cc(C=Cc2cccnc2)cc(C)c1O` [Compound 1x], at 5-lipoxygenase [1], the inhibition at 1 µM was found to be 62%. Further, in the experiment with 5-lipoxygenase [2], the “% Inhibition of Bronchioconstriction” value came out at 39%.

As to `COc1cc(C=Cc2cccs2)cc(C)c1O` [Compound 1d, 2-Methoxy-6-methyl-4-[2-(2-thienyl)ethenyl]phenol], the inhibition at 1 µM at 5-lipoxygenase [1] stood at 65%. In addition, in the experiment with 5-lipoxygenase [2], the “% Inhibition of Bronchioconstriction” value was determined as 41%.
